Source: ChEMBL document CHEMBL3877311, “Discovery of a novel series of N-hydroxypyridone derivatives protecting astrocytes against hydrogen peroxide-induced toxicity via improved mitochondrial functionality” (Bioorg Med Chem, 2017)
Activity calls are given as the source filed them. No cut-off for these calls is given here.

What was measured:
Astrocyte [1] = experiment: Inhibition of H2O2-induced mitochondrial metabolic dysfunction in Sprague-Dawley rat primary astrocytes by resazurin-dye based presto blue assay; type: functional, cell-based
Astrocyte [2] = experiment: Inhibition of H2O2-induced mitochondrial metabolic dysfunction in Sprague-Dawley rat primary astrocytes at 0.001 to 10 uM by resazurin-dye based presto blue assay relative to control; type: functional
[3] = Cytoprotective activity in Sprague-Dawley rat primary astrocytes assessed as inhibition of H2O2-induced cell death by LDH release assay; type: functional, cell-based; details: Astrocyte
[4] = Cytoprotective activity in Sprague-Dawley rat primary astrocytes assessed as inhibition of H2O2-induced cell death at 0.001 to 10 uM by LDH release assay relative to control; type: functional, Astrocyte
Rattus norvegicus = species on record: Rattus norvegicus; experiment: Cytotoxicity against Sprague-Dawley rat primary astrocytes assessed as cell death up to 10 uM by LDH release assay; type: toxicity; details: astrocyte
Astrocyte [5] = experiment: Cytoprotective activity in Sprague-Dawley rat primary astrocytes assessed as inhibition of H2O2-induced mitochondrial membrane depolarization at 1 uM measured every 5 mins for 2 hrs by TMRM dye based fluorescence assay; type: functional, cell-based
[6] = Induction of mitochondrial membrane depolarization in Sprague-Dawley rat primary astrocytes at 1 uM measured every 5 mins for 2 hrs by TMRM dye based fluorescence assay; type: cell-based; details: astrocyte
[7] = Effect on ATP turn over-linked oxygen consumption rate in Sprague-Dawley rat primary astrocytes at 1 uM; type: ADME, cell-based; details: astrocyte
[8] = Effect on basal oxygen consumption rate in Sprague-Dawley rat primary astrocytes at 1 uM; type: ADME, cell-based; details: astrocyte
[9] = Effect on basal extracellular acidification rate in Sprague-Dawley rat primary astrocytes at 1 uM; type: ADME, cell-based; details: astrocyte
Astrocyte [10] = experiment: Cytoprotective activity in Sprague-Dawley rat primary astrocytes assessed as inhibition of H2O2-induced decrease in oxygen consumption rate at 1 uM; type: functional, cell-based
Astrocyte [11] = experiment: Inhibition of H2O2-induced mitochondrial metabolic dysfunction in Sprague-Dawley rat primary astrocytes assessed as stimulation of extracellular acidification rate at 1 uM; type: functional, cell-based
Astrocyte [12] = experiment: Inhibition of H2O2-induced mitochondrial metabolic dysfunction in Sprague-Dawley rat primary astrocytes assessed as stimulation of glycolytic metabolism at 1 uM; type: functional, cell-based

| SMILES | IC50 (Astrocyte [1]) | Imax (Astrocyte [2]) | IC50 [3] | Imax [4] | Activity (Rattus norvegicus) | inhibition (Astrocyte [5]) | Activity [6] | Activity [7] | Activity [8] | Activity [9] | inhibition (Astrocyte [10]) | inhibition (Astrocyte [11]) | inhibition (Astrocyte [12]) |
| --- | --- | --- | --- | --- | --- | --- | --- | --- | --- | --- | --- | --- | --- |
| COc1ccccc1-c1ccc(-c2cc(C)cc(=O)n2O)cc1 | 340 nM | 58.6% | 156 nM | 58.8% | Non-Toxic | Active | Non-Toxic | Non-Toxic | Non-Toxic | Non-Toxic | Active | Active | Active |
| Cc1cc(-c2cccc(F)c2)n(O)c(=O)c1 | – | 0.75% | – | – | – | – | – | – | – | – | – | – | – |
| Cc1cc(C2CCCCC2)n(O)c(=O)c1 [CICLOPIROX] | 330 nM | 43.72% | 250 nM | 50.3% | – | Active | – | – | – | – | – | – | – |
